From US8815915B2, “Benzofuran-2-sulfonamides pyridine derivatives as chemokine receptor modulators” (Allergan, Inc., priority 2012, dated 2014)
pIC50: −log10 of the molar value. Read-outs that look alike come from different tables or passages of the source.

Target: T1, CCR2 receptor (Homo sapiens, UniProt P41597)
T1 construct: expressed in transfected cells
Test: compound-induced calcium activity on FLIPR Tetra in HEK-Gqi5 cells stably expressing CCR2
Assay type: cell-based
Protocol: HEK-Gqi5 cells stably expressing CCR2 were cultured in (DMEM high glucose, 10% FBS, 1% PSA, 400 μg/ml geneticin and 50 μg/ml hygromycin. Appropriate positive control chemokines (MCP-1, MIP1A or RANTES) was used as the positive control agonist for screening compound-induced calcium activity assayed on the FLIPR^Tetra. The drug plates were prepared in 384-well microplates using the EP3 and the MultiPROBE robotic liquid handling systems. Compounds were synthesized and tested for CCR2 activity.

[1] = CCR2 receptor, HEK-Gqi5 cells stably expressing CCR2, calcium FLIPR Tetra
[2] = CCR2 receptor, HEK-Gqi5 cells stably expressing CCR2, calcium FLIPR Tetra, read-out: IC50

T1 sequence (P41597 whole entry): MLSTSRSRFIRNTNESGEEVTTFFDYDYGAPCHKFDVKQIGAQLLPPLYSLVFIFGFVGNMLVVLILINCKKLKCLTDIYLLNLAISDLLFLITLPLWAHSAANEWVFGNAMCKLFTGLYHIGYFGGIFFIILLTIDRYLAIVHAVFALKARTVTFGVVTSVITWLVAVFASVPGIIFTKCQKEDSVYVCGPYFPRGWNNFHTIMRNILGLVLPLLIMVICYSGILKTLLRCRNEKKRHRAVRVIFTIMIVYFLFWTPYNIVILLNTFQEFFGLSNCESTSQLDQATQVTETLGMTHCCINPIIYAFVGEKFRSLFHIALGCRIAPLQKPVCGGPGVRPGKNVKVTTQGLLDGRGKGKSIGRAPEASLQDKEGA

What does the source list for O=S(=O)(Nc1cc(Cl)cnc1SCc1ccccc1)c1cc2ccccc2o1 [Compound 1, N-[2-(benzylthio)-5-chloropyridin-3-yl]-1-benzofuran-2-sulfonamide]?
% ANTAGONISM [1]: 83%; pIC50 [2]: 6.60

Which “% ANTAGONISM” value [1] does the source give for O=S(=O)(Nc1cc(Cl)cnc1[S+]([O-])Cc1ccccc1)c1cc2ccccc2o1 (stereo not drawn) [Compound 2, N-[2-(benzylsulfinyl)-5-chloropyridin-3-yl]-1-benzofuran-2-sulfonamide] here?
Its value is 94%.

And the pIC50 [2]?
The pIC50 was 7.51.

Which “% ANTAGONISM” value [1] does the source give for O=S(=O)(Cc1ccccc1)c1ncc(Cl)cc1NS(=O)(=O)c1cc2ccccc2o1 [Compound 3, N-[2-(benzylsulfonyl)-5-chloropyridin-3-yl]-1-benzofuran-2-sulfonamide] here?
Its value is 90%.

And the pIC50 [2]?
The pIC50 was 7.72.

How did the “% ANTAGONISM” value [1] turn out when O=S(=O)(Nc1cc(Cl)cnc1SCc1cccnc1)c1cc2ccccc2o1 [Compound 4, N-{5-chloro-2-[(pyridin-3-ylmethyl)thio]pyridin-3-yl}-1-benzofuran-2-sulfonamide] was run?
The value was 95%.

And the pIC50 [2]?
Its pIC50 is 7.49.

Which “% ANTAGONISM” value [1] does the source give for O=S(=O)(Nc1cc(Cl)cnc1[S+]([O-])Cc1cccnc1)c1cc2ccccc2o1 (stereo not drawn) [Compound 5, N-{5-chloro-2-[(pyridin-3-ylmethyl)sulfinyl]pyridin-3-yl}-1-benzofuran-2-sulfonamide] here?
The value was 99%.

What about the pIC50 [2] of the same molecule?
Its pIC50 is 6.70.

What does the source list for O=S(=O)(Cc1cccnc1)c1ncc(Cl)cc1NS(=O)(=O)c1cc2ccccc2o1 [Compound 6, N-{5-chloro-2-[(pyridin-3-ylmethyl)sulfonyl]pyridin-3-yl}-1-benzofuran-2-sulfonamide]?
% ANTAGONISM [1]: 84%; pIC50 [2]: 5.67

What does the source list for O=S(=O)(Cc1ccc[n+]([O-])c1)c1ncc(Cl)cc1NS(=O)(=O)c1cc2ccccc2o1 [Compound 7, N-(5-chloro-2-{[(1-oxidopyridin-3-yl)methyl]sulfonyl}pyridin-3-yl)-1-benzofuran-2-sulfonamide]?
% ANTAGONISM [1]: 100%; pIC50 [2]: 6.89

Which “% ANTAGONISM” value [1] does the source give for O=S(=O)(Nc1cccnc1SCc1ccccc1)c1cc2ccccc2o1 [Compound 8, N-[2-(benzylthio)pyridin-3-yl]-1-benzofuran-2-sulfonamide] here?
Its value is 80%.

And the pIC50 [2]?
Its pIC50 is 5.52.

O=S(=O)(Nc1cccnc1[S+]([O-])Cc1ccccc1)c1cc2ccccc2o1 (stereo not drawn) [Compound 9, N-[2-(benzylsulfinyl)pyridin-3-yl]-1-benzofuran-2-sulfonamide] was tested. Which “% ANTAGONISM” value [1] did it give?
Its value is 100%.

What about the pIC50 [2] of the same molecule?
Its pIC50 is 7.57.

What does the source list for O=S(=O)(Cc1ccccc1)c1ncccc1NS(=O)(=O)c1cc2ccccc2o1 [Compound 10, N-[2-(benzylsulfonyl)pyridin-3-yl]-1-benzofuran-2-sulfonamide]?
% ANTAGONISM [1]: 95%; pIC50 [2]: 7.80

How did the “% ANTAGONISM” value [1] turn out when Nc1cccc(CSc2ncccc2NS(=O)(=O)c2cc3ccccc3o2)c1 [Compound 11, N-{2-[(3-aminobenzyl)sulfanyl]pyridin-3-yl}-1-benzofuran-2-sulfonamide] was run?
The value was 99%.

What about the pIC50 [2] of the same molecule?
The pIC50 was 6.99.

What does the source list for Nc1cccc(C[S+]([O-])c2ncccc2NS(=O)(=O)c2cc3ccccc3o2)c1 (stereo not drawn) [Compound 12, N-{2-[(3-aminobenzyl)sulfinyl]pyridin-3-yl}-1-benzofuran-2-sulfonamide]?
% ANTAGONISM [1]: 100%; pIC50 [2]: 6.59

Which results are given for CC(C)(C)OC(=O)Nc1cccc(CS(=O)(=O)c2ncccc2NS(=O)(=O)c2cc3ccccc3o2)c1 [Compound 13, tert-butyl {3-[({3-[(1-benzofuran-2-ylsulfonyl)amino]pyridin-2-yl}sulfonyl)methyl]phenyl}carbamate]?
% ANTAGONISM [1]: 102%; pIC50 [2]: 6.30

Which results are given for Nc1cccc(CS(=O)(=O)c2ncccc2NS(=O)(=O)c2cc3ccccc3o2)c1 [Compound 14, N-{2-[(3-aminobenzyl)sulfonyl]pyridin-3-yl}-1-benzofuran-2-sulfonamide]?
% ANTAGONISM [1]: 102%; pIC50 [2]: 7.15

For O=S(=O)(Nc1cc(F)cnc1SCc1ccccc1)c1cc2ccccc2o1 [Compound 15, N-[2-(benzylsulfanyl)-5-fluoropyridin-3-yl]-1-benzofuran-2-sulfonamide], which “% ANTAGONISM” value [1] is on record?
Its value is 94%.

And the pIC50 [2]?
The pIC50 was 6.90.

Which “% ANTAGONISM” value [1] does the source give for O=S(=O)(Nc1cc(F)cnc1[S+]([O-])Cc1ccccc1)c1cc2ccccc2o1 (stereo not drawn) [Compound 16, N-[2-(benzylsulfinyl)-5-fluoropyridin-3-yl]-1-benzofuran-2-sulfonamide] here?
Its value is 95%.

And the pIC50 [2]?
The pIC50 was 7.74.

What does the source list for O=S(=O)(Cc1ccccc1)c1ncc(F)cc1NS(=O)(=O)c1cc2ccccc2o1 [Compound 17, N-[2-(benzylsulfonyl)-5-fluoropyridin-3-yl]-1-benzofuran-2-sulfonamide]?
% ANTAGONISM [1]: 101%; pIC50 [2]: 7.37

What does the source list for Nc1cccc(CSc2ncc(Cl)cc2NS(=O)(=O)c2cc3ccccc3o2)c1 [Compound 18, Benzofuran-2-sulfonic acid [2-(3-amino-benzylsulfanyl)-5-chloro-pyridin-3-yl]-amide]?
% ANTAGONISM [1]: 98%; pIC50 [2]: 7.02

What does the source list for Nc1cccc(C[S+]([O-])c2ncc(Cl)cc2NS(=O)(=O)c2cc3ccccc3o2)c1 (stereo not drawn) [Compound 19, N-{2-[(3-aminobenzyl)sulfinyl]-5-chloropyridin-3-yl}-1-benzofuran-2-sulfonamide]?
% ANTAGONISM [1]: 97%; pIC50 [2]: 7.00

How did the “% ANTAGONISM” value [1] turn out when Nc1cccc(CS(=O)(=O)c2ncc(Cl)cc2NS(=O)(=O)c2cc3ccccc3o2)c1 [Compound 20, N-(2-((3-aminobenzyl)sulfonyl)-5-chloropyridin-3-yl)benzofuran-2-sulfonamide] was run?
The value was 100%.

What about the pIC50 [2] of the same molecule?
Its pIC50 is 6.85.

Which “% ANTAGONISM” value [1] does the source give for Cc1cnc(SCc2ccccc2)c(NS(=O)(=O)c2cc3ccccc3o2)c1 [Compound 21, N-[2-(benzylsulfanyl)-5-methylpyridin-3-yl]-1-benzofuran-2-sulfonamide] here?
Its value is 80%.

And the pIC50 [2]?
Its pIC50 is 6.71.

Which “% ANTAGONISM” value [1] does the source give for Cc1cnc([S+]([O-])Cc2ccccc2)c(NS(=O)(=O)c2cc3ccccc3o2)c1 (stereo not drawn) [Compound 22, N-[2-(benzylsulfinyl)-5-methylpyridin-3-yl]-1-benzofuran-2-sulfonamide] here?
Its value is 103%.

And the pIC50 [2]?
The pIC50 was 7.60.

What does the source list for Cc1cnc(S(=O)(=O)Cc2ccccc2)c(NS(=O)(=O)c2cc3ccccc3o2)c1 [Compound 23, N-[2-(benzylsulfonyl)-5-methylpyridin-3-yl]-1-benzofuran-2-sulfonamide]?
% ANTAGONISM [1]: 96%; pIC50 [2]: 7.92

What does the source list for Cc1ncccc1Oc1ncc(Cl)cc1NS(=O)(=O)c1cc2ccccc2o1 [Compound 24, N-{5-chloro-2-[(2-methylpyridin-3-yl)oxy]pyridin-3-yl}-1-benzofuran-2-sulfonamide]?
% ANTAGONISM [1]: 90%; pIC50 [2]: 7.47

What does the source list for COC(=O)c1ccccc1Oc1ncc(Cl)cc1NS(=O)(=O)c1cc2ccccc2o1 [Compound 25, methyl 2-({3-[(1-benzofuran-2-ylsulfonyl)amino]-5-chloropyridin-2-yl}oxy)benzoate]?
% ANTAGONISM [1]: 93%; pIC50 [2]: 6.67

O=C(O)c1ccccc1Oc1ncc(Cl)cc1NS(=O)(=O)c1cc2ccccc2o1 [Compound 26, 2-({3-[(1-benzofuran-2-ylsulfonyl)amino]-5-chloropyridin-2-yl}oxy)benzoic acid] was tested. Which “% ANTAGONISM” value [1] did it give?
Its value is 97%.

What about the pIC50 [2] of the same molecule?
Its pIC50 is 6.80.

What does the source list for O=C1CCN(C(=O)c2ncc(Cl)cc2NS(=O)(=O)c2cc3ccccc3o2)CC1 [Compound 28, N-{5-chloro-2-[(4-oxopiperidin-1-yl)carbonyl]pyridin-3-yl}-1-benzofuran-2-sulfonamide]?
pIC50: 7.62; % ANTAGONISM [1]: 105%
